Data taken from patent US20260199371A1, “COORDINATION COMPOUND, COMPOSITIONS, AND USES THEREOF FOR TREATING CANCERS” (HUEIYUAN BIOTECH LLC, priority 2023, published 2026).

Legend:
LoVo-parental cells [1] = conditions: single agent: compound (II) 500 μg/ml or oxaliplatin 50 μg/ml, 72 hours
LoVo-OXAR cells [2] = tested on: LoVo-OXAR cells
LoVo-OXAR cells [3] = conditions: single agent: compound (II) 2000 μg/ml or oxaliplatin 50 μg/ml, 48 hours
LoVo-OXAR cells [4] = conditions: single agent: compound (II) 2000 μg/ml or oxaliplatin 50 μg/ml, 72 hours
LoVo-parental cells [5] = tested on: LoVo-parental cells
LoVo-parental cells [6] = conditions: single agent: compound (II) 500 μg/ml or oxaliplatin 50 μg/ml, 48 hours

O=C1[O][Pt]2([NH][C@@H]3CCCC[C@H]3[NH]2)[O]C1=O [oxaliplatin, reference compound]
invasion rate of LoVo-parental cells (LoVo-parental cells [1]): significantly decreased
viability of LoVo-OXAR cells under oxaliplatin (LoVo-OXAR cells [2]; FIG. 2C): decreased the viability of both LoVo-parental and LoVo-OXAR cells in a dose-dependent manner
IC50 of oxaliplatin in LoVo-OXAR cells (LoVo-OXAR cells [2]; MTT assay): about 65 μg/ml
migration rate of LoVo-OXAR cells (LoVo-OXAR cells [3]): significantly decreased
invasion rate of LoVo-OXAR cells (LoVo-OXAR cells [4]): significantly decreased
viability of LoVo-parental cells under oxaliplatin (LoVo-parental cells [5]; FIG. 2C): decreased the viability of both LoVo-parental and LoVo-OXAR cells in a dose-dependent manner
IC50 of oxaliplatin in LoVo-parental cells (LoVo-parental cells [5]; MTT assay): about 15.0 μg/ml
migration rate of LoVo-parental cells (LoVo-parental cells [6]): significantly decreased
